Test system: NHBE cells
Assay: Biolog metabolic array: substrate use by NHBE cells with or without CA09 infection
Type: cell-based, human
Settings: for Substrate use, 590 nm absorbance normalized to zero hour, 1 hr: Biolog PMM2, 1 hr; for Substrate use, 590 nm absorbance normalized to zero hour, 5 hr: Biolog PMM2, 5 hr; for Substrate use, 590 nm absorbance normalized to zero hour, 7 hr: Biolog PMM2, 7 hr
[1] = Control (uninfected) NHBE cells
[2] = Virus (CA09-infected NHBE cells, MOI 1)
[3] = Virus: CA09-infected NHBE cells, MOI 1, Biolog PMM2

SMILES	590 nm absorbance normalized to zero hour (substrate use), 1 hr [1]	590 nm absorbance normalized to zero hour (substrate use), 2 hr [1]	590 nm absorbance normalized to zero hour (substrate use), 3 hr [1]	590 nm absorbance normalized to zero hour (substrate use), 4 hr [1]	590 nm absorbance normalized to zero hour (substrate use), 6 hr [1]	590 nm absorbance normalized to zero hour (substrate use), 8 hr [1]	590 nm absorbance normalized to zero hour (substrate use), 9 hr [1]	590 nm absorbance normalized to zero hour (substrate use), 10 hr [1]	590 nm absorbance normalized to zero hour (substrate use), 11 hr [1]	Substrate use, 590 nm absorbance normalized to zero hour, 1 hr [1]	Substrate use, 590 nm absorbance normalized to zero hour, 5 hr [1]	Substrate use, 590 nm absorbance normalized to zero hour, 7 hr [1]	590 nm absorbance normalized to zero hour (substrate use), 1 hr [2]	590 nm absorbance normalized to zero hour (substrate use), 2 hr [2]	590 nm absorbance normalized to zero hour (substrate use), 3 hr [2]	590 nm absorbance normalized to zero hour (substrate use), 4 hr [2]	590 nm absorbance normalized to zero hour (substrate use), 5 hr [2]	590 nm absorbance normalized to zero hour (substrate use), 6 hr [2]	590 nm absorbance normalized to zero hour (substrate use), 7 hr [2]	590 nm absorbance normalized to zero hour (substrate use), 8 hr [2]	further results
C[C@H](O)[C@H](O)[C@@H](O)[C@@H](O)C=O [L-Rhamnose]	1.28	1.52	1.49	1.66	2.53	2.01	2.71	2.22	2.36	1.28	2.12	1.91	0.16	0.22	0.25	0.28	0.32	0.34	0.36	0.38	590 nm absorbance normalized to zero hour (substrate use), 9 hr [2]: 0.41; 590 nm absorbance normalized to zero hour (substrate use), 10 hr [2]: 0.43; 590 nm absorbance normalized to zero hour (substrate use), 11 hr [2]: 0.46; 590 nm absorbance normalized to zero hour (substrate use), 1 hr [3]: 0.16; 590 nm absorbance normalized to zero hour (substrate use), 2 hr [3]: 0.22; 590 nm absorbance normalized to zero hour (substrate use), 3 hr [3]: 0.25; 590 nm absorbance normalized to zero hour (substrate use), 4 hr [3]: 0.28; 590 nm absorbance normalized to zero hour (substrate use), 5 hr [3]: 0.32; 590 nm absorbance normalized to zero hour (substrate use), 6 hr [3]: 0.34; 590 nm absorbance normalized to zero hour (substrate use), 7 hr [3]: 0.36; 590 nm absorbance normalized to zero hour (substrate use), 8 hr [3]: 0.38; 590 nm absorbance normalized to zero hour (substrate use), 9 hr [3]: 0.41; 590 nm absorbance normalized to zero hour (substrate use), 10 hr [3]: 0.43; 590 nm absorbance normalized to zero hour (substrate use), 11 hr [3]: 0.46
OC[C@H]1O[C@@H](OC[C@H]2OC(O)[C@H](O)[C@@H](O)[C@@H]2O)[C@H](O)[C@@H](O)[C@@H]1O (some centres unmarked) [Gentio-biose]	1.71	2.34	2.83	3.01	4.46	4.57	5.20	5.59	5.94	1.71	3.72	4.35	1.23	1.38	1.44	1.47	1.55	1.62	1.66	1.72	590 nm absorbance normalized to zero hour (substrate use), 9 hr [2]: 1.79; 590 nm absorbance normalized to zero hour (substrate use), 10 hr [2]: 1.85; 590 nm absorbance normalized to zero hour (substrate use), 11 hr [2]: 1.99; 590 nm absorbance normalized to zero hour (substrate use), 1 hr [3]: 1.23; 590 nm absorbance normalized to zero hour (substrate use), 2 hr [3]: 1.38; 590 nm absorbance normalized to zero hour (substrate use), 3 hr [3]: 1.44; 590 nm absorbance normalized to zero hour (substrate use), 4 hr [3]: 1.47; 590 nm absorbance normalized to zero hour (substrate use), 5 hr [3]: 1.55; 590 nm absorbance normalized to zero hour (substrate use), 6 hr [3]: 1.62; 590 nm absorbance normalized to zero hour (substrate use), 7 hr [3]: 1.66; 590 nm absorbance normalized to zero hour (substrate use), 8 hr [3]: 1.72; 590 nm absorbance normalized to zero hour (substrate use), 9 hr [3]: 1.79; 590 nm absorbance normalized to zero hour (substrate use), 10 hr [3]: 1.85; 590 nm absorbance normalized to zero hour (substrate use), 11 hr [3]: 1.99
OC[C@H]1O[C@@H](O[C@H]2[C@H](O)[C@@H](O)[C@@H](O)O[C@@H]2CO)[C@H](O)[C@@H](O)[C@H]1O [a-D-Lactose]	0.44	0.58	0.65	0.69	0.63	0.94	1.01	1.02	0.92	0.44	0.82	0.88	0.17	0.22	0.26	0.28	0.33	0.35	0.37	0.39	590 nm absorbance normalized to zero hour (substrate use), 0 hr [1]: 1.00; Substrate use, 590 nm absorbance normalized to zero hour, 0 hr (Control (uninfected) NHBE cells, Biolog PMM2, 0 hr): 1.00; 590 nm absorbance normalized to zero hour (substrate use), 0 hr [2]: 1.00; 590 nm absorbance normalized to zero hour (substrate use), 9 hr [2]: 0.42; 590 nm absorbance normalized to zero hour (substrate use), 10 hr [2]: 0.41; 590 nm absorbance normalized to zero hour (substrate use), 11 hr [2]: 0.39; 590 nm absorbance normalized to zero hour (substrate use), 0 hr [3]: 1.00; 590 nm absorbance normalized to zero hour (substrate use), 1 hr [3]: 0.17; 590 nm absorbance normalized to zero hour (substrate use), 2 hr [3]: 0.22; 590 nm absorbance normalized to zero hour (substrate use), 3 hr [3]: 0.26; 590 nm absorbance normalized to zero hour (substrate use), 4 hr [3]: 0.28; 590 nm absorbance normalized to zero hour (substrate use), 5 hr [3]: 0.33; 590 nm absorbance normalized to zero hour (substrate use), 6 hr [3]: 0.35; 590 nm absorbance normalized to zero hour (substrate use), 7 hr [3]: 0.37; 590 nm absorbance normalized to zero hour (substrate use), 8 hr [3]: 0.39; 590 nm absorbance normalized to zero hour (substrate use), 9 hr [3]: 0.42; 590 nm absorbance normalized to zero hour (substrate use), 10 hr [3]: 0.41; 590 nm absorbance normalized to zero hour (substrate use), 11 hr [3]: 0.39
O=C(CO)[C@@H](O)[C@@H](O)[C@H](O)CO [Tagatose]																					590 nm absorbance normalized to zero hour (substrate use), 11 hr (Virus (CA09-infected, MOI 1) NHBE cells): 0.48

— patent publication US11083725B2 (priority 2014, dated 2021)
